Assay results reported in ChEMBL document CHEMBL5365406, “Inhibitors for metallo-β-lactamases from the B1 and B3 subgroups provide an avenue to combat a major mechanism of antibiotic resistance” (Bioorg Med Chem Lett, 2023).
The source made the active and inactive calls. No cut-off for these calls is given here.

Experiments:
Bacteria [1] = experiment: Competitive inhibition of AIM-1 (unknown origin) using cefuroxime as substrate by Michaelis-Menten equation based kinetic analysis
[2] = target: Metallo-beta-lactamase type 2 (Bacteria) (UniProt C7C422); experiment: Uncompetitive inhibition of NDM-1 (unknown origin) using penicillin G as substrate by Michaelis-Menten equation based kinetic analysis
[3] = target: Metallo-beta-lactamase type 2 (Bacteria) (UniProt C7C422); experiment: Competitive inhibition of NDM-1 (unknown origin) using penicillin G as substrate by Michaelis-Menten equation based kinetic analysis
Escherichia coli [4] = experiment: Antagonistic antibacterial activity against Escherichia coli expressing AIM-1 in presence of penicillin G by checkerboard sensitivity assay; type: functional, organism-based
Bacteria [5] = experiment: Inhibition of AIM-1 (unknown origin) at 10 uM relative to control
Escherichia coli [6] = experiment: Synergistic antibacterial activity against Escherichia coli expressing NDM-1 in presence of cefuroxime by checkerboard sensitivity assay; type: functional, organism-based
[7] = Inhibition of CphA (unknown origin) using meropenem as substrate; set-up: species or system Bacteria
Escherichia coli [8] = experiment: Synergistic antibacterial activity against Escherichia coli expressing AIM-1 in presence of meropenem by checkerboard sensitivity assay; type: functional, organism-based
Escherichia coli [9] = experiment: Antagonistic antibacterial activity against Escherichia coli expressing NDM-1 in presence of meropenem by checkerboard sensitivity assay; type: functional, organism-based
Escherichia coli [10] = experiment: Synergistic antibacterial activity against Escherichia coli expressing AIM-1 in presence of cefuroxime by checkerboard sensitivity assay; type: functional, organism-based
Escherichia coli [11] = experiment: Synergistic antibacterial activity against Escherichia coli expressing CphA in presence of penicillin G by checkerboard sensitivity assay; type: functional, organism-based
Escherichia coli [12] = experiment: Synergistic antibacterial activity against Escherichia coli expressing CphA in presence of cefuroxime by checkerboard sensitivity assay; type: functional, organism-based
Escherichia coli [13] = experiment: Synergistic antibacterial activity against Escherichia coli expressing NDM-1 in presence of penicillin G by checkerboard sensitivity assay; type: functional, organism-based
Escherichia coli [14] = experiment: Synergistic antibacterial activity against Escherichia coli expressing CphA in presence of meropenem by checkerboard sensitivity assay; type: functional, organism-based
[15] = target: Metallo-beta-lactamase type 2 (Bacteria) (UniProt C7C422); experiment: Inhibition of NDM-1 (unknown origin) at 10 uM relative to control
Bacteria [16] = experiment: Uncompetitive inhibition of AIM-1 (unknown origin) using cefuroxime as substrate by Michaelis-Menten equation based kinetic analysis
[17] = Stability of the compound in NaBH4/ethanol assessed as oxidation measured after 24 hrs at room temperature; type: physicochemical
Escherichia coli [18] = experiment: Antagonistic antibacterial activity against Escherichia coli expressing AIM-1 in presence of cefuroxime by checkerboard sensitivity assay; type: functional, organism-based
Escherichia coli [19] = experiment: Antagonistic antibacterial activity against Escherichia coli expressing AIM-1 in presence of meropenem by checkerboard sensitivity assay; type: functional, organism-based
Escherichia coli [20] = experiment: Synergistic antibacterial activity against Escherichia coli expressing AIM-1 in presence of penicillin G by checkerboard sensitivity assay; type: functional, organism-based

Sequence of Metallo-beta-lactamase type 2 (Bacteria) (C7C422 whole entry): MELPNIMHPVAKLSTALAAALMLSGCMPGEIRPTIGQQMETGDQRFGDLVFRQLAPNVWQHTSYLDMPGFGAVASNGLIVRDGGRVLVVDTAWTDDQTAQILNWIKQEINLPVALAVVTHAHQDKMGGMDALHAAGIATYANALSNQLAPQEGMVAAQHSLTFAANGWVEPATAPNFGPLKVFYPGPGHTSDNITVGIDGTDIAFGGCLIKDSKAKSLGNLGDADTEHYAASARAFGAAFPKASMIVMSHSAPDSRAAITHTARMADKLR

Row | Kic (Bacteria [1]) [µM] | Kiuc [2] [µM] | Kic [3] [µM] | inhibition (Bacteria [5]) | inhibition [15] | Kiuc (Bacteria [16]) [µM] | Structure (SMILES) | other results
1 | 4.4 | 0.9 | 1.3 | 61% | 49% | 4.7 | N#Cc1c(-c2ccccc2)c(-c2ccccc2)n(Cc2ccccc2)c1/N=C/c1ccc(O)cc1 | Activity (Escherichia coli [4]): Active; Activity (Escherichia coli [6]): Active; IC50 [7]: 45 µM; Activity (Escherichia coli [8]): Active; Activity (Escherichia coli [9]): Active; Activity (Escherichia coli [10]): Active; Activity (Escherichia coli [11]): Active; Activity (Escherichia coli [12]): Active; Activity (Escherichia coli [13]): Active; Activity (Escherichia coli [14]): Active
2 | 11 | 5 | 9 | 42% | 47% | 19 | N#Cc1c(-c2ccccc2)c(-c2ccccc2)n(Cc2ccccc2)c1NC(=O)c1ccccc1 | Activity (Escherichia coli [6]): Active; Activity (Escherichia coli [20]): Active; Activity (Escherichia coli [18]): Active; Activity (Escherichia coli [9]): Active; Activity (Escherichia coli [11]): Active; Activity (Escherichia coli [12]): Active; Activity (Escherichia coli [13]): Active; Activity (Escherichia coli [14]): Active; Activity (Escherichia coli [19]): Active
3 |  |  |  | inactive | inactive |  | COC(=O)c1ccc(-c2c(C#N)c(N)n(Cc3ccccc3)c2-c2ccc(C(=O)OC)cc2)cc1 | 
4 | 6.4 | 4.4 | 34 | 19% | 27% | 72 | COC(=O)c1ccc(/C=N/c2c(C#N)c(-c3ccccc3)c(-c3ccccc3)n2Cc2ccccc2)cc1 | 
5 |  |  |  | 10% | 14% |  | CC(=O)Nc1ccc(/C=N/c2c(C#N)c(-c3ccccc3)c(-c3ccccc3)n2Cc2ccccc2)cc1 | 
6 |  |  |  | 39% | 40% |  | N#Cc1c(-c2ccccc2)c(-c2ccccc2)n(Cc2ccccc2)c1/N=C/c1ccc(C(=O)O)cc1 | 
7 |  |  |  | inactive | inactive |  | N#Cc1c(-c2ccc(C(=O)O)cc2)c(-c2ccc(C(=O)O)cc2)n(Cc2ccccc2)c1N | 

The remaining lines, values behind:

Row | Structure (SMILES) | Kic (Bacteria [1]) [µM] | Kiuc [2] [µM] | Kic [3] [µM] | inhibition (Bacteria [5]) | inhibition [15] | Kiuc (Bacteria [16]) [µM] | other results
8 | N#Cc1c(-c2ccccc2)c(-c2ccccc2)n(Cc2ccccc2)c1/N=C/c1ccccc1 | 3.6 | 6 | 3.2 | 42% | 38% | 11 | Activity (Escherichia coli [4]): Active; Activity (Escherichia coli [6]): Active; IC50 [7]: 75 µM; Activity (Escherichia coli [8]): Active; Activity (Escherichia coli [9]): Active; Activity (Escherichia coli [10]): Active; Activity (Escherichia coli [11]): Active; Activity (Escherichia coli [12]): Active; Activity (Escherichia coli [13]): Active; Activity (Escherichia coli [14]): Active
9 | N#Cc1c(-c2ccccn2)c(-c2ccccn2)n(Cc2ccccc2)c1N |  |  |  | inactive | inactive |  | 
10 | N#Cc1c(-c2ccccc2)c(-c2ccccc2)n(Cc2ccccc2)c1NCc1ccccc1 |  | 2.7 |  | 32% | 41% |  | Stability [17]: Stable
11 | N#Cc1c(-c2ccccc2)c(-c2ccccc2)n(Cc2ccccc2)c1/N=C/c1cccnc1 |  |  |  | 11% | 28% |  | 
12 | N#Cc1c(-c2ccccc2)c(-c2ccccc2)n(Cc2ccccc2)c1/N=C/c1cccs1 | 4.5 | 11 | 1.7 | 42% | 57% | 35 | Activity (Escherichia coli [4]): Active; Activity (Escherichia coli [6]): Active; IC50 [7]: 57 µM; Activity (Escherichia coli [18]): Active; Activity (Escherichia coli [9]): Active; Activity (Escherichia coli [11]): Active; Activity (Escherichia coli [12]): Active; Activity (Escherichia coli [13]): Active; Activity (Escherichia coli [14]): Active; Activity (Escherichia coli [19]): Active
13 | N#Cc1c(-c2ccccc2)c(-c2ccccc2)n(Cc2ccccc2)c1/N=C/c1ccc2ccccc2c1 |  |  |  | 26% | 50% |  | 
14 | N#Cc1c(-c2ccccc2)c(-c2ccccc2)n(Cc2ccccc2)c1NCc1cccs1 |  |  |  | 25% | 29% |  | 
15 | N#Cc1c(-c2ccccc2)c(-c2ccccc2)n(Cc2ccccc2)c1/N=C/c1ccc([N+](=O)[O-])cc1 |  |  |  | 40% | 45% |  | 
